# Biological target: PncA H57D mutant (Mycobacterium tuberculosis, UniProt I6XD65, H57D)
# Assay type: biochemical
structure (smiles),measurement,value
NC(=O)c1cnccn1 [pyrazinamide],"decrease in Km, H57D mutant versus wild type",20 fold
same,"decrease in kcat (catalytic turnover), H57D mutant versus wild type",38 fold
same,kcat,0.10 ± 0.01 s⁻¹
